Reference: US6743824B2 (Somerset Pharmaceuticals, Inc., priority 1996, dated 2004)
Structures can show the parent of a compound that is named as a salt.

What was measured:
[1] = tested on: peripheral neuropathy caused by vincristine; test: Treatment of peripheral neuropathy caused by vincristine (Example 1); format: in vivo, human; conditions: patient with endometrial carcinoma on vincristine 1.4 mg/m^2 weekly; 5 mg orally twice a day
Procedure: A patient with endometrial carcinoma is given an intravenous bolus injection of vincristine at a dose of 1.4 mg/m^2 weekly. The toxic effects of vincristine cause sensory loss in the fingers and toes, a loss of the ankle jerk reflex, weakness and postural hypotension. […] During this time, therapy with vincristine is continued and evaluations of both tumor response and toxic side effects are carried out by a physician on a weekly basis. After continued therapy, symptoms associated with peripheral neuropathy subside. At this point, the dosage of vincristine is increased to 1.8 mg/m^2 and the process is continued.

retinal ganglion cells = conditions: rat optic nerve crush model; Buys et al. 1994; cited from earlier work
spinal motor neurons = conditions: rat; Iwasaki et al. 1994; cited from earlier work
[2] = tested on: cultured spinal cord neuron; conditions: Iwasaki et al. 1994; cited from earlier work
CNS neurons = conditions: toxins such as MPP+, kainic acid or DSP-4; cited from earlier work
[3] = tested on: axotomized rat facial motor neurons; conditions: Salo et al. 1992; cited from earlier work

C#CCN(C)[C@H](C)Cc1ccccc1 [selegiline hydrochloride]
symptoms associated with peripheral neuropathy [1]: subside

C#CCN(C)C(C)Cc1ccccc1 (stereo not drawn) [selegiline, R-(−)-N-methyl-N-(prop-2-ynyl)-2-aminophenylpropane]
survival of retinal ganglion cells at risk of undergoing apoptosis (retinal ganglion cells): increase the survival
effect on axotomy-induced cell death in spinal motor neurons (spinal motor neurons): neuroprotective effect
neurite outgrowth [2]: enhance neurite outgrowth
survival of CNS neurons after exposure to chemical toxins (CNS neurons): increase the survival
rescue of axotomized facial motor neurons [3]: capable of rescuing
